Measurements published in PubChem BioAssay (NCI).
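Method: 48-hour compound exposure of cells in 96-well plates, five concentrations, linear interpolation of endpoints. At the TGI there is no net growth.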

Experiments:
Test in all cases: NCI tumour cell line growth inhibition, 48 h
RXF-631 renal = test system: RXF-631 renal
DMS 273 small cell lung = test system: DMS 273 small cell lung
KM20L2 colon = test system: KM20L2 colon
SNB-78 CNS = test system: SNB-78 CNS
XF 498 CNS = test system: XF 498 CNS
LXFL 529 NSCLC = test system: LXFL 529 NSCLC
HOP-18 NSCLC = test system: HOP-18 NSCLC
SN12K1 renal = test system: SN12K1 renal
P388 leukemia = test system: P388 leukemia
P388/ADR leukemia = test system: P388/ADR leukemia

Structure (SMILES)	TGI (RXF-631 renal)	TGI (DMS 273 small cell lung)	TGI (KM20L2 colon)	TGI (SNB-78 CNS)	TGI (XF 498 CNS)	TGI (LXFL 529 NSCLC)	TGI (HOP-18 NSCLC)	TGI (SN12K1 renal)	TGI (P388 leukemia)	TGI (P388/ADR leukemia)
CSCCC(C(=O)O)N(CC1(O)OCC(O)C(O)C1O)N=O (stereo not given)	> 100 µM	> 100 µM	> 100 µM	> 100 µM	> 100 µM	> 100 µM				
CCOC(=O)CNc1nnnn1C1OC(CO)C(O)C1O (stereo not given)		> 100 µM	> 100 µM	> 100 µM	> 100 µM	> 100 µM				
O=C1C=CC2(C=C1)C[C@H](NC(=O)OCc1ccccc1)C(=O)O2	40.8 µM	35 µM	38.7 µM	67.2 µM	32 µM	24.7 µM	31.5 µM			
CCCN(CCC)C1=Nc2ccccc2-n2cnnc2C1		> 100 µM	> 100 µM	> 100 µM	> 100 µM	> 100 µM				
CCOC(=O)C1(Br)S(=O)(=O)OCCOS1(=O)=O		> 100 µM	> 100 µM	> 100 µM	> 100 µM					
COc1ccc(-c2cc(=O)c3c(O)cc(O)cc3o2)c(OC)c1OC			> 100 µM		> 100 µM	> 100 µM				
COc1cccc(NC(=O)C(=O)C2C=CCS2(=O)=O)c1 (stereo not given)			> 100 µM		> 100 µM	> 100 µM	> 100 µM			
O=c1ccnc2ccc3n[nH][nH]c3c12	> 100 µM	> 100 µM	> 100 µM	> 100 µM	> 100 µM	> 100 µM	> 100 µM			
CN(C(=O)c1ccco1)C(=S)N1CCN(c2ccccn2)CC1		> 100 µM	> 100 µM	> 100 µM	> 100 µM	> 100 µM	> 100 µM			
Nc1ccc(Sc2c3ccccc3nc3ccccc23)cc1		28.8 µM	33.1 µM	53.3 µM	28 µM	21 µM	41.7 µM			
COC(=O)C1C=CCON2CCc3c(n(S(=O)(=O)c4ccccc4)c4ccccc34)C12 (stereo not given)		> 66.2 µM	> 63.2 µM	> 100 µM		> 100 µM	> 100 µM			
COc1c2c(cc3c1C(=O)Cc1ccc4c(c1CN(C)CC3)OCO4)OCO2	> 100 µM		> 100 µM	> 100 µM			> 100 µM			
CCCCCCCCOC(=O)c1cc([N+](=O)[O-])c(Sc2ncnc3nc[nH]c23)c([N+](=O)[O-])c1		1.57 µM	9.22 µM	10.5 µM	2.24 µM		11.1 µM	2.64 µM	0.447 µM	0.458 µM
